EP3549947B1, “POLYRGD PEPTIDES OBTAINED BY CHEMICAL AND BIOTECHNOLOGY METHODS WITH INJURY REDUCING AND/OR NEUROPROTECTIVE EFFECTS AND A KIT FOR THEIR ACTIVITY EVALUATION” (Uniwersytet Gdanski, priority 2018, dated 2019)
Entries after “also recorded” stand apart in the source; their conditions may differ.

How the values were obtained:
[1] = test system: primary neural cells; experiment: Multifactorial in vitro model of neurological injury (six injury factors), CellTiterBlue viability; format: cell-based, Wistar rat; settings: 1-hour injury factor (glucose deprivation, acidosis pH 6.35 + 200 mM sodium lactate, 10 mM sodium azide, 400 µM glutamic acid, 800 µM NMDA or 800 µM kainic acid), then 20 hour incubation with 100 µM peptide (RGD10: 1 µg/ml)
Description: (§1) Primary neural cortical cultures were obtained from Wistar rat E18.5 embryos. To this end, pregnant rat females were anesthetized and euthanized in a CO2 chamber. In some cases, euthanasia was performed by isoflurane. The cortex tissue was excised from the isolated embryos and washed with HBSS buffer, supplemented with a mixture of penicillin and streptomycin, and HEPES. Afterwards, the cortex tissue was trypsinized for 10 minutes at 37 °C and homogenized mechanically in order to disintegrate the tissue to the form of a cell suspension. The cells were the centrifuged at 300 rcf for 4 minutes, resuspended once more in HBSS and quantified in a Bürker chamber in order to obtain a cell suspension of proper density. […]
(§2) A subject of the invention constitutes a diagnostic methodology for measuring the neuroprotective activity of peptides in a model of several factors co-occurring during any neurological injury. […] These injury conditions were optimized so that the strength of each injury factor causes a 30-40% decrease in response in a CellTiterBlue-based evaluation (a CTB fluorophore in a modified biochemical assay of the MTT type) of cellular viability, relying on quantitative analysis of mitochondrial metabolic functions. […] The fluorescence intensity of the CTB agent is measured spectrofluorimetically (560ex/590em) and is proportional to the number of living cells. […]

[2] = test system: primary neural cortical cultures; experiment: Viability assay (CellTiterBlue) of primary neural cultures exposed to polyRGD peptides; format: cell-based, Wistar rat; settings: reference peptide at 50 µM, 20 hour exposure
Description: as §1, §2

Compound	injury-reducing and/or neuroprotective activity (neural cell viability) [1]	injury-reducing and/or neuroprotective activity (neural cell viability) ([1]; listed as RGD 1)	cytotoxic effects (viability of neural culture) [2]
N=C(N)NCCC[C@H](N)C(=O)NCC(=O)N[C@@H](CC(=O)O)C(N)=O [RGD1, H2N-RGD-amide]	significant increase in neural cell viability with regard to all injury factors; also recorded: significant injury-reducing and/or neuroprotective efficacy with respect to all six injury factors	broadest spectrum of activity	
Tat(49-57)NH2 [TAT peptide]			None of the analyzed peptides displayed significant cytotoxic effects in the assessed concentration ranges, as well as a reference factor
